Test system: MV-4-11 cells
Assay: Gene expression microarray analysis (Affymetrix PrimeView) and GSEA
Format: cell-based, human
Set-up: RFU PODN (11730768_x_at) / Fold change /veh PODN (11730768_x_at) / RFU LINC00158 (11744669_a_at) / Fold change /veh LINC00158 (11744669_a_at) / RFU DUSP10 (11751237_a_at) / Fold change /veh DUSP10 (11751237_a_at) / RFU ID3 (11757404_x_at) / Fold change /veh ID3 (11757404_x_at) / RFU PLEKHG5 (11737974_s_at) / Fold change /veh PLEKHG5 (11737974_s_at) / RFU LRRC4B (11730491_at) / Fold change /veh LRRC4B (11730491_at) / RFU GIMAP4 (11747438_a_at) / Fold change /veh GIMAP4 (11747438_a_at) / RFU KRT8 (11758183_x_at) / Fold change /veh KRT8 (11758183_x_at) / RFU CNN1 (11734310_a_at) / Fold change /veh CNN1 (11734310_a_at) / RFU VPS37D (11726825_at) / Fold change /veh VPS37D (11726825_at) / RFU C10orf10 (11716522_x_at) / Fold change /veh C10orf10 (11716522_x_at) / RFU KIR2DL2 /// KIR2DL4 /// KIR2DL5A /// KIR2DL5B /// KIR2DS1 /// KIR2DS2 /// KIR2DS3 /// KIR2DS4 /// KIR3DL3 /// KIR3DL3 /// KIR3DS1 (11738374_at) / Fold change /veh KIR2DL2 /// KIR2DL4 /// KIR2DL5A /// KIR2DL5B /// KIR2DS1 /// KIR2DS2 /// KIR2DS3 /// KIR2DS4 /// KIR3DL3 /// KIR3DL3 /// KIR3DS1 (11738374_at) / RFU C1QL1 (11718748_at) / Fold change /veh C1QL1 (11718748_at) / RFU TMPRSS4 (11747572_a_at) / Fold change /veh TMPRSS4 (11747572_a_at) / RFU HAMP (11756126_x_at) / Fold change /veh HAMP (11756126_x_at) / RFU RNFT2 (11725882_a_at) / Fold change /veh RNFT2 (11725882_a_at) / RFU NR4A2 (11747474_a_at) / Fold change /veh NR4A2 (11747474_a_at) / RFU ABCC12 (11746883_a_at) / Fold change /veh ABCC12 (11746883_a_at) / RFU TMEM136 (11760407_x_at) / Fold change /veh TMEM136 (11760407_x_at) / RFU CLDN22 /// WWC2 (11732394_at) / Fold change /veh CLDN22 /// WWC2 (11732394_at) / RFU HLA-DPB1 (11760878_x_at) / Fold change /veh HLA-DPB1 (11760878_x_at) / RFU SPINT1 (11716480_a_at) / Fold change /veh SPINT1 (11716480_a_at) / RFU GAP43 (11754022_s_at) / Fold change /veh GAP43 (11754022_s_at) / RFU A4GNT (11735810_at) / Fold change /veh A4GNT (11735810_at) / RFU PRB3 (11715151_x_at) / Fold change /veh PRB3 (11715151_x_at) / RFU TUBB4B (11761932_at) / Fold change /veh TUBB4B (11761932_at) / RFU CAPN14 (11732068_a_at) / Fold change /veh CAPN14 (11732068_a_at) / RFU TMCC2 (11721928_a_at) / Fold change /veh TMCC2 (11721928_a_at) / RFU IRGQ (11745062_a_at) / Fold change /veh IRGQ (11745062_a_at) / RFU FAM174B (11720279_a_at) / Fold change /veh FAM174B (11720279_a_at) / RFU TMPRSS4 (11748680_a_at) / Fold change /veh TMPRSS4 (11748680_a_at) / RFU FAM212B (11763350_a_at) / Fold change /veh FAM212B (11763350_a_at) / RFU PLEKHG5 (11743358_a_at) / Fold change /veh PLEKHG5 (11743358_a_at) / RFU ZSCAN30 (11745921_a_at) / Fold change /veh ZSCAN30 (11745921_a_at) / RFU CMKLR1 (11741424_a_at) / Fold change /veh CMKLR1 (11741424_a_at) / RFU LOC101060620 /// MAPK8IP1 (11723275_at) / Fold change /veh LOC101060620 /// MAPK8IP1 (11723275_at) / RFU SPTSSB (11747773_x_at) / Fold change /veh SPTSSB (11747773_x_at) / RFU PRSS12 (11739890_at) / Fold change /veh PRSS12 (11739890_at) / RFU BIN1 (11741810_x_at) / Fold change /veh BIN1 (11741810_x_at) / RFU WNT11 (11732464_a_at) / Fold change /veh WNT11 (11732464_a_at) / RFU C10orf10 (11716521_a_at) / Fold change /veh C10orf10 (11716521_a_at) / RFU C5orf56 (11738089_at) / Fold change /veh C5orf56 (11738089_at) / RFU CYB561 (11721691_x_at) / Fold change /veh CYB561 (11721691_x_at) / RFU ANKRD19P (11752326_a_at) / Fold change /veh ANKRD19P (11752326_a_at) / RFU OR2T12 /// OR2T33 /// OR2T8 (11738714_s_at) / Fold change /veh OR2T12 /// OR2T33 /// OR2T8 (11738714_s_at) / RFU VCAN (11748164_a_at) / Fold change /veh VCAN (11748164_a_at) / RFU JSRP1 (11732532_at) / Fold change /veh JSRP1 (11732532_at) / RFU KRTAP10-11 (11738290_x_at) / Fold change /veh KRTAP10-11 (11738290_x_at) / RFU MYO3A (11730013_a_at) / Fold change /veh MYO3A (11730013_a_at) / RFU EBF3 (11725865_a_at) / Fold change /veh EBF3 (11725865_a_at) / RFU CAMK2N1 (11719241_x_at) / Fold change /veh CAMK2N1 (11719241_x_at) / RFU C5orf56 (11738088_a_at) / Fold change /veh C5orf56 (11738088_a_at) / RFU OLFML3 (11715873_a_at) / Fold change /veh OLFML3 (11715873_a_at) / RFU LOC100653217 /// NTM (11731650_a_at) / Fold change /veh LOC100653217 /// NTM (11731650_a_at) / RFU MAPK11 (11762145_a_at) / Fold change /veh MAPK11 (11762145_a_at) / RFU FIZ1 (11724087_x_at) / Fold change /veh FIZ1 (11724087_x_at) / RFU OASL (11726364_x_at) / Fold change /veh OASL (11726364_x_at) / RFU SOX15 (11748057_x_at) / Fold change /veh SOX15 (11748057_x_at) / RFU CD79A (11719716_a_at) / Fold change /veh CD79A (11719716_a_at) / RFU HIST1H1D (11736915_at) / Fold change /veh HIST1H1D (11736915_at) / RFU CASKIN2 (11723855_a_at) / Fold change /veh CASKIN2 (11723855_a_at) / RFU LOC730098 (11760151_x_at) / Fold change /veh LOC730098 (11760151_x_at) / RFU OR4N2 (11742367_at) / Fold change /veh OR4N2 (11742367_at) / RFU PRRT2 (11749266_a_at) / Fold change /veh PRRT2 (11749266_a_at) / RFU SNX32 (11753110_a_at) / Fold change /veh SNX32 (11753110_a_at) / RFU CDHR5 (11726645_a_at) / Fold change /veh CDHR5 (11726645_a_at) / RFU RCAN1 (11760418_a_at) / Fold change /veh RCAN1 (11760418_a_at) / RFU FAM167A (11723789_a_at) / Fold change /veh FAM167A (11723789_a_at) / RFU FAM26E (11764081_at) / Fold change /veh FAM26E (11764081_at) / RFU ISYNA1 (11749810_s_at) / Fold change /veh ISYNA1 (11749810_s_at) / RFU ACY1 (11761880_at) / Fold change /veh ACY1 (11761880_at) / RFU 11764098_at / Fold change /veh 11764098_at / RFU SAMD14 (11745864_x_at) / Fold change /veh SAMD14 (11745864_x_at) / RFU NPB (11741838_a_at) / Fold change /veh NPB (11741838_a_at) / RFU TMPRSS6 (11731388_a_at) / Fold change /veh TMPRSS6 (11731388_a_at) / RFU KRTAP10-2 (11738614_at) / Fold change /veh KRTAP10-2 (11738614_at) / RFU ARHGAP8 /// PRR5-ARHGAP8 (11727945_x_at) / Fold change /veh ARHGAP8 /// PRR5-ARHGAP8 (11727945_x_at) / RFU KRTAP5-7 /// NADSYN1 (11734609_at) / Fold change /veh KRTAP5-7 /// NADSYN1 (11734609_at) / RFU RASL12 (11751679_a_at) / Fold change /veh RASL12 (11751679_a_at) / RFU CDKN2B (11736163_a_at) / Fold change /veh CDKN2B (11736163_a_at) / RFU PRF1 (11729649_at) / Fold change /veh PRF1 (11729649_at) / RFU, ZNF638 /// ZNF638-IT1 / Fold change vs veh, ZNF638 /// ZNF638-IT1 / RFU, PANK3 / Fold change vs veh, PANK3 / RFU, SH3YL1 / Fold change vs veh, SH3YL1 / RFU, ZEB2 / Fold change vs veh, ZEB2 / RFU, NRIP1 / Fold change vs veh, NRIP1 / RFU, PTTG1IP / Fold change vs veh, PTTG1IP / RFU, CAPN2 / Fold change vs veh, CAPN2 / RFU, MED14 / Fold change vs veh, MED14 / RFU, SNORA58 / Fold change vs veh, SNORA58 / RFU, C1orf63 / Fold change vs veh, C1orf63 / RFU, LRRFIP1 / Fold change vs veh, LRRFIP1 / RFU, NDUFAF7 / Fold change vs veh, NDUFAF7 / RFU, SLC12A2 / Fold change vs veh, SLC12A2 / RFU, IBTK / Fold change vs veh, IBTK / RFU, ESF1 / Fold change vs veh, ESF1 / Fold change vs veh, TMEM50B / RFU, TAOK1 / Fold change vs veh, TAOK1 / RFU, ACBD3 / Fold change vs veh, ACBD3 / RFU, TMA16 / Fold change vs veh, TMA16 / RFU, RWDD3 / Fold change vs veh, RWDD3 / RFU, BCAT1 / Fold change vs veh, BCAT1 / RFU, EDEM3 / Fold change vs veh, EDEM3 / RFU, TMEM33 / Fold change vs veh, TMEM33 / RFU, WDR75 / Fold change vs veh, WDR75 / RFU, AHCTF1 / Fold change vs veh, AHCTF1 / RFU, TFRC / Fold change vs veh, TFRC / RFU, ZDHHC17 / Fold change vs veh, ZDHHC17 / RFU, NOM1 / Fold change vs veh, NOM1 / RFU, ARL8B / Fold change vs veh, ARL8B / RFU, ZBTB11 / Fold change vs veh, ZBTB11 / RFU, TAMM41 / Fold change vs veh, TAMM41 / RFU, KIAA1704 /// LOC100996395 / Fold change vs veh, KIAA1704 /// LOC100996395 / RFU, ING1 / Fold change vs veh, ING1 / RFU, TRMT61B / Fold change vs veh, TRMT61B / RFU, FUBP3 / Fold change vs veh, FUBP3 / RFU, TP53 / Fold change vs veh, TP53 / RFU, TNKS2 / Fold change vs veh, TNKS2 / RFU, ZFP14 / Fold change vs veh, ZFP14 / RFU, ACTR2 / Fold change vs veh, ACTR2 / RFU, PPP3R1 / Fold change vs veh, PPP3R1 / RFU, PIK3R1 / Fold change vs veh, PIK3R1 / RFU, HNRNPA1 / Fold change vs veh, HNRNPA1 / RFU, RNF170 / Fold change vs veh, RNF170 / RFU, ZNF28 / Fold change vs veh, ZNF28 / RFU, RNGTT / Fold change vs veh, RNGTT / RFU, OGT / Fold change vs veh, OGT / RFU, BRD1 / Fold change vs veh, BRD1 / RFU, MARS / Fold change vs veh, MARS / RFU, ZNF655 / Fold change vs veh, ZNF655 / RFU, FAHD1 / Fold change vs veh, FAHD1 / RFU, BDP1 / Fold change vs veh, BDP1 / RFU, LRRCC1 / Fold change vs veh, LRRCC1 / RFU, ARID1A / Fold change vs veh, ARID1A / RFU, ZNF146 / Fold change vs veh, ZNF146 / RFU, ZNF330 / Fold change vs veh, ZNF330 / RFU, GPN3 / Fold change vs veh, GPN3 / RFU, C9orf123 / Fold change vs veh, C9orf123 / RFU, N4BP2L2 / Fold change vs veh, N4BP2L2 / RFU, ARFIP1 / Fold change vs veh, ARFIP1 / RFU, FAM179B / Fold change vs veh, FAM179B / RFU, BCL10 / Fold change vs veh, BCL10 / RFU, UHRF1BP1L / Fold change vs veh, UHRF1BP1L / RFU, BET1 / Fold change vs veh, BET1 / RFU, CNOT2 / Fold change vs veh, CNOT2 / RFU, ZNF268 / Fold change vs veh, ZNF268 / Fold change vs veh, ZNF507 / RFU, DGCR2 / Fold change vs veh, DGCR2 / RFU, WDSUB1 / Fold change vs veh, WDSUB1 / Fold change vs veh, HSP90B1 /// MIR3652 / RFU, ADSS / Fold change vs veh, ADSS / RFU, GK / Fold change vs veh, GK / RFU, ZNF148 / Fold change vs veh, ZNF148 / RFU, TAF9 / Fold change vs veh, TAF9 / RFU, SLC1A5 / Fold change vs veh, SLC1A5 / RFU, SLMO2 / Fold change vs veh, SLMO2 / RFU, ABCC4 / Fold change vs veh, ABCC4 / RFU, LOC101060439 /// RAP1B / Fold change vs veh, LOC101060439 /// RAP1B / RFU, RFX7 / Fold change vs veh, RFX7 / RFU, GTPBP10 / Fold change vs veh, GTPBP10 / RFU, CNEP1R1 / Fold change vs veh, CNEP1R1 / RFU, BIVM-ERCC5 /// ERCC5 / Fold change vs veh, BIVM-ERCC5 /// ERCC5 / RFU, ILF3 / Fold change vs veh, ILF3 / RFU 11762660_at / Fold change /veh 11762660_at / RFU VCAN (11757783_s_at) / Fold change /veh VCAN (11757783_s_at) / RFU DDX43 (11728927_at) / Fold change /veh DDX43 (11728927_at) / RFU KRT8 (11758188_x_at) / Fold change /veh KRT8 (11758188_x_at) / RFU NKD1 (11759106_at) / Fold change /veh NKD1 (11759106_at) / RFU SRD5A1 (11742802_a_at) / Fold change /veh SRD5A1 (11742802_a_at) / RFU TPSAB1 /// TPSB2 (11721975_s_at) / Fold change /veh TPSAB1 /// TPSB2 (11721975_s_at) / RFU GSTM3 (11746129_a_at) / Fold change /veh GSTM3 (11746129_a_at) / RFU IL23R (11737362_x_at) / Fold change /veh IL23R (11737362_x_at) / RFU TMEM51 (11727254_a_at) / Fold change /veh TMEM51 (11727254_a_at) / RFU PIWIL2 (11732686_x_at) / Fold change /veh PIWIL2 (11732686_x_at) / RFU ORM1 (11744905_x_at) / Fold change /veh ORM1 (11744905_x_at) / RFU CCDC152 (11743942_at) / Fold change /veh CCDC152 (11743942_at) / RFU ECM1 (11717891_a_at) / Fold change /veh ECM1 (11717891_a_at) / RFU IL23R (11748794_a_at) / Fold change /veh IL23R (11748794_a_at) / RFU TNFAIP8L3 (11732012_x_at) / Fold change /veh TNFAIP8L3 (11732012_x_at) / RFU MBOAT4 (11741988_at) / Fold change /veh MBOAT4 (11741988_at) / RFU 11764193_at / Fold change /veh 11764193_at / RFU TMEM53 (11763286_at) / Fold change /veh TMEM53 (11763286_at) / RFU MAGEB2 (11727129_at) / Fold change /veh MAGEB2 (11727129_at) / RFU TMEM200A (11744735_a_at) / Fold change /veh TMEM200A (11744735_a_at) / RFU CCDC152 (11751479_a_at) / Fold change /veh CCDC152 (11751479_a_at) / RFU FAM211A (11726209_a_at) / Fold change /veh FAM211A (11726209_a_at) / RFU RGS16 (11746705_a_at) / Fold change /veh RGS16 (11746705_a_at) / RFU VCAN (11755009_s_at) / Fold change /veh VCAN (11755009_s_at) / RFU RHOB (11743442_s_at) / Fold change /veh RHOB (11743442_s_at) / RFU RGS16 (11720943_a_at) / Fold change /veh RGS16 (11720943_a_at) / RFU RGS16 (11720944_at) / Fold change /veh RGS16 (11720944_at) / RFU, VPS4B / Fold change vs veh, VPS4B / RFU, CREB1 / Fold change vs veh, CREB1 / RFU, DNAJC13 / Fold change vs veh, DNAJC13 / RFU, GNAQ / Fold change vs veh, GNAQ / RFU, CDK5R1 / Fold change vs veh, CDK5R1 / RFU, ZRANB3 / Fold change vs veh, ZRANB3 / RFU, CUL4A / Fold change vs veh, CUL4A / RFU, CCNY / Fold change vs veh, CCNY / RFU, UFL1 / Fold change vs veh, UFL1 / RFU, COG3 / Fold change vs veh, COG3 / RFU, DIAPH2 / Fold change vs veh, DIAPH2 / RFU, SKA2 / Fold change vs veh, SKA2 / RFU, AFF3 / Fold change vs veh, AFF3 / RFU, LMF1 / Fold change vs veh, LMF1 / RFU, IPO11 / Fold change vs veh, IPO11 / RFU, DFFB / Fold change vs veh, DFFB / RFU, FOXP1 / Fold change vs veh, FOXP1 / RFU, CARD8 / Fold change vs veh, CARD8 / RFU, STRN3 / Fold change vs veh, STRN3 / RFU, ADK / Fold change vs veh, ADK / RFU, RASSF2 / Fold change vs veh, RASSF2 / RFU, WIPF1 / Fold change vs veh, WIPF1 / RFU, LARP1B / Fold change vs veh, LARP1B / RFU, RASA1 / Fold change vs veh, RASA1 / RFU, RB1 / Fold change vs veh, RB1 / RFU, PPFIA1 / Fold change vs veh, PPFIA1 / RFU, MAT2A / Fold change vs veh, MAT2A / RFU, CCT5 / Fold change vs veh, CCT5 / RFU, WDR92 / Fold change vs veh, WDR92 / RFU, CUX1 / Fold change vs veh, CUX1 / RFU, TTC7A / Fold change vs veh, TTC7A / RFU, TMEM135 / Fold change vs veh, TMEM135 / RFU, DEPTOR / Fold change vs veh, DEPTOR / RFU, CPM / Fold change vs veh, CPM / RFU, DNAJB6 / Fold change vs veh, DNAJB6 / RFU, CACNA2D3 / Fold change vs veh, CACNA2D3 / RFU, DTX4 / Fold change vs veh, DTX4 / RFU, TFCP2 / Fold change vs veh, TFCP2 / RFU, GMCL1 /// GMCL1P1 / Fold change vs veh, GMCL1 /// GMCL1P1 / RFU, AEBP2 / Fold change vs veh, AEBP2 / RFU, SNHG1 /// SNORD22 /// SNORD25 /// SNORD26 /// SNORD27 /// SNORD28 /// SNORD29 /// SNORD31 / Fold change vs veh, SNHG1 /// SNORD22 /// SNORD25 /// SNORD26 /// SNORD27 /// SNORD28 /// SNORD29 /// SNORD31 / Fold change (Aza/veh), C12orf56 (ProbeSet 11735607_a_at) / Fold change (ACY-1035/veh), C12orf56 (ProbeSet 11735607_a_at) / Fold change (Aza/veh), FGFR1OP (ProbeSet 11751329_s_at) / Fold change (ACY-1035/veh), FGFR1OP (ProbeSet 11751329_s_at) / Fold change (Aza/veh), VPS36 (ProbeSet 11739960_a_at) / Fold change (ACY-1035/veh), VPS36 (ProbeSet 11739960_a_at) / RFU SYPL1 (11715823_x_at) / Fold change /veh SYPL1 (11715823_x_at) / RFU IGFBP7 (11715501_s_at) / Fold change /veh IGFBP7 (11715501_s_at) / RFU REEP3 (11722064_at) / Fold change /veh REEP3 (11722064_at) / RFU IGLL1 (11728026_x_at) / Fold change /veh IGLL1 (11728026_x_at): dose or concentration left out as unconfirmed
Details: ProbeSet 11753055_s_at; LIST B

## Nc1ccc(-c2cccs2)cc1NC(=O)c1ccc2c(c1)cc(C1CC1)n2CCN1CCOCC1 [ACY-1035]
  RFU, LOC101060439 /// RAP1B: 639.03 RFU

Reference: article PMC5218480 (PLoS ONE, 2017)
